Data on 7 molecules can be found in US20250090524A1, “BTK INHIBITORS” (BIOGEN MA INC., priority 2021, published 2025).

For experiment [1], the system named is CD69 expression on CD19+ B cells in human whole blood. Briefly: In Vitro Whole Blood CD69 Assay. Type of experiment: cell-based. To be noted: B-cell; human heparinized whole blood, anti-human IgD stimulation, overnight (18 to 22 hours), percentage of CD19+ B cells expressing CD69, flow cytometry; read-out: In Vitro HWB CD69 Assay IC50 Score. As to the method: Human heparinized venous blood from health donors was aliquoted into 96-well plate and “spiked” with serial dilutions of formula I compounds in DMSO or with DMSO without drug. The final concentration of DMSO in all wells was 0.1%. The plate was incubated at 37° C. for 30 min. Drug-containing samples were stimulated with […] mouse anti-human IgD-dextran (1A62) or 20 μg/mL polyclonal rabbit F(ab′)2 anti-human IgD.
Phosphate-buffered saline (PBS) was added to the negative control unstimulated sample and the plates were incubated overnight (18 to 22 hours) at 37° C. Cells were stained with fluorochrome-conjugated anti-CD19 and anti-CD69 antibodies. Lyse/fix solution was used to remove red blood cells by hypotonic lysis and to fix the remaining cells, which were then analyzed by flow cytometry. CD19+B cells were gated and analyzed for CD69 expression.
The percentage of B cells expressing CD69 was plotted versus the log 10 of the concentration of the drug and the best-fit curves (variable Hill slope) were generated to obtain the IC50 value.
“†” represents an IC50 of greater than 10 μM. “††” represents an IC50 of greater than 1 μM and equal to or less than 10 μM (1 μM<IC50≤10 μM). “†††” represents an IC50 of less than 1 μM.
Background: Flow cytometry measures light scatter and fluorescence of single cells or particles in a stream.

The target in another experiment is T1, BTK (Homo sapiens, UniProt Q06187).
T1 construct: purchased Upstate 14-552
T1 sequence (Q06187 whole entry): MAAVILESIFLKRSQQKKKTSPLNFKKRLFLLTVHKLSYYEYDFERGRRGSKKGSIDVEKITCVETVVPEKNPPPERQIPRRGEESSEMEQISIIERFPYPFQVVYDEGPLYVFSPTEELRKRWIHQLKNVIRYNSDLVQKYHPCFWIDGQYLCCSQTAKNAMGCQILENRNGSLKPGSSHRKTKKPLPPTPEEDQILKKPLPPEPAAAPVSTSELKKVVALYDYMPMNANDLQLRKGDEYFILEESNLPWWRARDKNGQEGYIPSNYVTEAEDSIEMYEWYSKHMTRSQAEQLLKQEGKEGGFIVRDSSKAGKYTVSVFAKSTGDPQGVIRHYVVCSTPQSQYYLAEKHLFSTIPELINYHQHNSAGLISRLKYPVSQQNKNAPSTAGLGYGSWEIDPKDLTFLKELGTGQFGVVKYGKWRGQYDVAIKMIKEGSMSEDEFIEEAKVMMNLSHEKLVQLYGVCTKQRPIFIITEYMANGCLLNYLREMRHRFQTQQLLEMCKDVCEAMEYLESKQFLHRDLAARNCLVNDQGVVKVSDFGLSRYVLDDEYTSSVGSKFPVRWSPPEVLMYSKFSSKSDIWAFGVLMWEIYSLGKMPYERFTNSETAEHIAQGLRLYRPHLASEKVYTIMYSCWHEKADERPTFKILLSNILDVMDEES
Description: In Vitro BTK Kinase Assay: Btk-PolyGAT-LS Assay. Type of experiment: biochemical. To be noted: active BTK enzyme 0.25 nM, fluorescein-labeled polyGAT peptide 100 nM, 30 minutes incubation, TRF readout; read-out: In Vitro BTK Kinase Assay IC50 Score. As to the method: The purpose of the BTK in vitro assay is to determine compound potency against BTK through the measurement of IC50. Compound inhibition is measured after monitoring the amount of phosphorylation of a fluorescein-labeled polyGAT peptide (Invitrogen PV3611) in the presence of active BTK enzyme (Upstate 14-552), ATP, and inhibitor. The BTK kinase reaction was done in a black 96 well plate (costar 3694). For a typical assay, a 24 μL aliquot of a ATP/peptide master mix (final concentration; ATP […], polyGAT 100 nM) in kinase buffer (10 mM Tris-HCl pH 7.5, 10 mM MgCl2, 200 μM […], 5 mM DTT, 0.01% Triton X-100, and 0.2 mg/ml casein) is added to each well. Next, I uL of a 4-fold, 40× compound titration in 100% DMSO solvent is added, followed by adding […] of BTK enzyme mix in 1× kinase buffer (with a final concentration of 0.25 nM). The assay is incubated for 30 minutes before being stopped with […] of a 50 mM EDTA solution. Aliquots (5 uL) of the kinase reaction are transferred to a low volume white 384 well plate (Corning 3674), and […] of a 2× detection buffer (Invitrogen PV3574, with 4 nM Tb-PY20 antibody, Invitrogen PV3552) is added. The plate is covered and incubated for 45 minutes at room temperature. Time resolved fluorescence (TRF) on Molecular Devices M5 (332 nm excitation; 488 nm emission; 518 nm fluorescein emission) is measured. IC50 values are calculated using a four parameter fit with 100% enzyme activity determined from the DMSO control and 0% activity from the EDTA control.
“†” represents an IC50 of greater than 1 μM and equal to or less than 10 μM. “††” represents an IC50 of greater than 10 nM and equal to or less than 1 μM (10 nM<IC50≤1 μM). “†††” represents an IC50 of greater than 1 nM and equal to or less than 10 nM (1 nM<IC50≤10 nM). “††††” represents an IC50 of less than 1 nM.

In the case of `C=CC(=O)N1CCC(c2nc(-c3cnn(C)c3)cn3ncc(C)c23)CC1` [Example 9, 1-[4-[3-methyl-6-(1-methylpyrazol-4-yl)pyrazolo[1,5-a]pyrazin-4-yl]-1-piperidyl]prop-2-en-1-one], the concentration for half-maximal inhibition (IC50) – broadly, the concentration that gives 50% inhibition – in experiment [1] was 1000 to 10000 nM; on BTK it was 1 to 10 nM.

In the case of `C=CC(=O)N1C2CCC1CC(c1nc(-c3cnn(C)c3)cn3nccc13)C2` (centres unmarked) [Example 11, 1-[3-[6-(1-methylpyrazol-4-yl)pyrazolo[1,5-a]pyrazin-4-yl]-8-azabicyclo [3.2.1]octan-8-yl]prop-2-en-1-one], the half-maximal inhibitory concentration (IC50) in experiment [1] fell in the range of 1000 to 10000 nM; at BTK, 1 to 10 nM.

On to `C=CC(=O)N1C2CCCC1CC(c1nc(-c3cnn(C)c3)cn3nccc13)C2` (centres unmarked) [Example 13, 1-[3-[6-(1-methylpyrazol-4-yl)pyrazolo[1,5-a]pyrazin-4-yl]-9-azabicyclo[3.3.1]nonan-9-yl]prop-2-en-1-one], for which the IC50 fell in the range of 1000 to 10000 nM in experiment [1] and 1 to 10 nM at BTK.

As to `C=CC(=O)N1CC2CCC1CC2c1nc(-c2cnn(C)c2)cn2nccc12` (centres unmarked) [Example 14, 1-[5-[6-(1-methylpyrazol-4-yl)pyrazolo[1,5-a]pyrazin-4-yl]-2-azabicyclo[2.2.2]octan-2-yl]prop-2-en-1-one], the IC50 in experiment [1] lay within 1000 to 10000 nM; on BTK it was 1 to 10 nM.

As to `C=CC(=O)N1CCC(c2nc(-c3cnn(C)c3)cn3nccc23)C(C)C1` (centres unmarked) [Example 15, 1-[3-methyl-4-[6-(1-methylpyrazol-4-yl)pyrazolo[1,5-a]pyrazin-4-yl]-1-piperidyl]prop-2-en-1-one], the results for the half-inhibitory concentration (IC50) (in experiment [1]; on BTK) were 1000 to 10000 nM and 10 to 1000 nM, respectively.

With `C=CC(=O)Nc1cccc(-c2nc(-c3cnn(C)c3)cn3nccc23)c1` [Example 28, N-(3-(6-(1-methyl-1H-pyrazol-4-yl)pyrazolo[1,5-a]pyrazin-4-yl)phenyl) acrylamide], the IC50 in experiment [1] fell in the range of 1000 to 10000 nM; on BTK, 10 to 1000 nM.

In the case of `C=CC(=O)N(C)c1cccc(-c2nc(-c3cnn(C)c3)cn3nccc23)c1` [Example 29, N-methyl-N-(3-(6-(1-methyl-1H-pyrazol-4-yl)pyrazolo[1,5-a]pyrazin-4-yl)phenyl)acrylamide], the values for the IC50 (in experiment [1]; on BTK) were 1000 to 10000 nM and 1 to 10 nM, respectively.
